According to patent publication US20030050236A1, “Compounds that enhance tumor death” (The University of Chicago, priority 2000, published 2003):
Counter-ions that a name gives are not always drawn. Like-named read-outs stand apart in the source and are kept apart here. One block for each molecule: values may come before it. *1 amine or outer side, *2 acyl side, *3 side chain or, on linkers, in order; H or OH if unused. Where a SMILES comes first, the peptide text is derived from it. Bridges are numbered along the chain shown (N, C = ends). Roman numbers before positions name the chains, in order. Where no end group is shown, it is not given here. [ ]: non-standard residue; d: D form. Actinocin(9to1) = Cc1c2oc3c(C)ccc(C(=O)[*:1])c3nc-2c(C(=O)[*:2])c(N)c1=O; NMeV = CN[C@H](C(=O)O)C(C)C; Sar = CNCC(=O)O

Experiments:
[1] = cited from earlier work; for fraction of dose excreted / recovered in the urine: unchanged, intact or active drug
[2] = cited from earlier work
[3] = tested on: LA-N-5 human neuroblastoma cells; experiment: Cell viability / cell death by MTT assay; type: cell-based; settings: LY-294002 30 μM, C2 ceramide 25 μM; 24 hrs
Protocol: LA-N-5 human neuroblastoma cells were grown in DMEM supplemented with 10% fetal bovine serum and 1% gentamicin. […] Cell death was measured by the MTT method (Cho et al., 2000a; Cho et al., 2000b; Cho et al., 2000c).

[4] = molecular target: T1, PPT1 (Homo sapiens, UniProt P50897); experiment: In vitro PPT1 activity assay, [14C]palmitoyl peptide substrates, cell extract
T1 sequence (P50897 28-306): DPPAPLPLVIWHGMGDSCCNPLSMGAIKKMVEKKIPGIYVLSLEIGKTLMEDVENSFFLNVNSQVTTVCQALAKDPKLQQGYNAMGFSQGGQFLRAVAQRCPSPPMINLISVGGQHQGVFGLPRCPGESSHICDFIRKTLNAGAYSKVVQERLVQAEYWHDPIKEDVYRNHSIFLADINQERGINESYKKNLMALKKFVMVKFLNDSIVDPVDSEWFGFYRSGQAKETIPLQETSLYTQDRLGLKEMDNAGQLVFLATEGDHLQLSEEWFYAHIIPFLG
Protocol: Incubations were performed for 20 min at 37° C. and reactions terminated by addition of 1 ml of chloroform/methanol/2N HCl (2:1:0.06, v/v). After the centrifugation, organic phase was analyzed by HPTLC using n-butanol/pyridine/acetic acid/water (45:30:9:36, v/v) and [14C] palmitate release was quantified.
The peptide sequence, AcGCVKIKK (a palmitoylation site in K-Ras), was modified by substituting the SH group of cysteine with NH2 to generate diamino propionic acid, which was then acylated with palmitate (AcG-palmitoyl diamino propionate-VKIKK). […] In another set of experiments, the unmodified peptide itself (AcGCVKIKK) was used as a control to exclude the possibility of a nonspecific effect of the sequence on PPT activity.
In brief, the cell sonicate was incubated in the assay mixture containing 50 mM sodium citrate (pH 4.0) and IRY([^4C]palmitoylated)CWLRR octapeptide (2,000-4,000 cpm) for 20 min at 37° C. For the pH profile of PPT1 activity, 50 mM sodium citrate (pH 5 or 6) or 50 mM Tris-HCl (pH 7.4) was used with other conditions remaining the same. After addition of 1 ml of chloroform/methanol/2N HCl (2:1:0.06, by volume) and centrifugation, the organic phase was dried, reconstituted sample analyzed by HPTLC using n-butanol/pyridine/acetic acid/water (45:30:9:36, by volume) and the radioactive spot corresponding to [^14C] palmitate was counted.
PPT1 activity was measured as described above. In brief, the cell sonicate was incubated in the assay mixture (50 mM sodium citrate (pH 4.0) for [^14C]palmitoylated [sequence] Po peptide substrate (3,000-4,000 cpm) or 50 mM Tris (pH 7.4) for [^14C]palmitoylated MLCCMRR GAP43 peptide substrate) for 20 min at 37° C. After organic extraction, samples were analyzed by HPTLC using n-butanol/pyridine/acetic acid/water (45:30:9:36, by volume) and the radioactive spot corresponding to [^14C] palmitate was counted.

[5] = tested on: PPT1 overexpressing LA-N-5 cells; experiment: Cell death by MTT assay in PPT1 overexpressing cells; type: cell-based, human; settings: compared to LAN-5 cells
Protocol: Cells were plated in 24-well culture plates containing 500 μl media. After drug treatment, 50 μl MTT (5 mg/ml in PBS) was added and incubated for 20 min at 37° C. An aliquot of 500 μl of 10% sodium dodecyl sulfate in 0.01 N HCl was added. After incubating overnight, the absorbance at 570 nm was determined by spectrophotometry. Cell viability was calculated as percent cell survival by dividing absorbance [treatment-blank] by absorbance [control-blank], where treatment is the reading for the treated cells, control is for vehicle-treated cells and blank is for MTT added to the media without cells.
In order to further verify that the increased susceptibility to drug-induced apoptosis of the AS-PPT1 treated cells was due to compromised PPT1 activity, the extent of cell death induced by C2-ceramide treatment in control was compared to DAP 1-treated cells. Treatment of cells with DAP1 alone induced 5-10% death of cells at DAP1 concentrations up to 100 μM for 6 h., as measured by MTT assay (FIG. 10A). […] In these cells, neither C2-ceramide, DAP1 alone or DAP1 (100 μM) followed by C2-ceramide (30 μM) for 6 h induced more than 10% cell death (FIG. 10B).
LA-N-5 human neuroblastoma cells were grown in DMEM supplemented with 10% fetal bovine serum and 1% gentamicin. Clones of cells stably expressing PPT1 were selected and maintained by growing in media containing G418 (500 μg/ml) as described (Cho, et al., 2000b). Cell death was measured by the MTT method (Cho et al., 2000a; Cho et al., 2000b; Cho et al., 2000c).

[6] = molecular target: T2, palmitoyl protein thioesterase 1 (PPT1) (human, UniProt P50897 28-306); experiment: cell-based or functional assay
T2 sequence: T1 sequence (P50897 28-306)

Molecule: Cc1c2oc3c(C)ccc(C(=O)N[C@@H]4C(=O)N[C@H](C(C)C)C(=O)N5CCC[C@H]5C(=O)N(C)CC(=O)N(C)[C@@H](C(C)C)C(=O)O[C@@H]4C)c3nc-2c(C(=O)N[C@@H]2C(=O)N[C@H](C(C)C)C(=O)N3CCC[C@H]3C(=O)N(C)CC(=O)N(C)[C@@H](C(C)C)C(=O)O[C@@H]2C)c(N)c1=O [Actinomycin D] (I: T[dV]P[Sar][NMeV] / II: T[dV]P[Sar][NMeV]; ester I:1-I:C, II:1-II:C; linker I:N-II:N via Actinocin(9to1))
fraction of dose excreted / recovered in the urine [1]: 10%

Molecule: COc1cccc2c1C(=O)c1c(O)c3c(c(O)c1C2=O)C[C@@](O)(C(=O)CO)C[C@@H]3O[C@H]1C[C@H](N)[C@H](O)[C@H](C)O1 [Doxorubicin, 5,12-Naphthacenedione, (8 s-cis)-10-[(3-amino-2,3,6-trideoxy-a-L-lyxo-hexopyranosyl)oxy]-7,8,9,1 0-tetrahydro-6,8,11-trihydroxy-8-(hydroxyacetyl)-1-methoxy-hydrochloride]
probability of developing impaired myocardial function ([2]; 400 mg/m^2): 3 to 5%
probability of developing impaired myocardial function ([2]; 450 mg/m^2): 5 to 8%
probability of developing impaired myocardial function ([2]; 500 mg/m^2): 6 to 20%
probability of developing impaired myocardial function ([2]; total cumulative dose of 300 mg/m^2): 1 to 2%

Molecule: O=c1cc(N2CCOCC2)oc2c(-c3ccccc3)cccc12 [LY-294002]
cell death (MTT assay) [3]: about 50%

Molecule: O=NN(CCCl)C(=O)NC1CCCCC1 [Lomustine, 1-(2-chloro-ethyl)-3-cyclohexyl-1 nitrosourea]
radioactivity excreted as degradation products within 24 hours ([1]; oral, 30 mg/m^2 to 100 mg/m^2): about half

Molecule: CO[C@@]12[C@H](COC(N)=O)C3=C(C(=O)C(C)=C(N)C3=O)N1C[C@@H]1N[C@@H]12 [Mitomycin]
fraction of dose excreted / recovered in the urine [1]: Approximately 10%

Molecule: O=S(=O)(F)Cc1ccccc1 [PMSF, phenylmethylsulfonyl fluoride]
effect on PPT1 enzyme activity ([4]; preincubation with 1 mM, control or PPT1 transfected cells): did not affect the enzyme activity

Molecule: CC[C@]1(O)C[C@@H]2CN(CCc3c([nH]c4ccccc34)[C@@](C(=O)OC)(c3cc4c(cc3OC)N(C)[C@H]3[C@@](O)(C(=O)OC)[C@H](OC(C)=O)[C@]5(CC)C=CCN6CC[C@]43[C@@H]65)C2)C1 [Vinblastine]
fraction of dose excreted / recovered in the urine [1]: Approximately 15%

Molecule: COc1cccc2c1C(=O)c1c(O)c3c(c(O)c1C2=O)C[C@@](O)(C(C)=O)C[C@@H]3O[C@H]1C[C@H](N)[C@H](O)[C@H](C)O1 [daunorubicin, 5,12-Naphthacenedione, (8S-cis)-8-acetyl-10-[(3-amino-2,3 ,6-trideoxy-a-L-lyxo-hexanopyranosyl)oxy]-7,8 ,9,1 0-tetrahydro-6,8, 11-trihydroxy-10-methoxy-, hydrochloride]
susceptibility of PPT1 overexpressing cells to killing [5]: markedly decreased susceptibility to killing

Molecule: CN[C@@H]1C[C@H]2O[C@@](C)([C@@H]1OC)n1c3ccccc3c3c4c(c5c6ccccc6n2c5c31)C(=O)NC4 [staurosporine]
susceptibility of PPT1 overexpressing cells to killing [5]: markedly decreased susceptibility to killing

inhibition in an in vitro assay (PPT activity) (% inhibition at 20 µM) [6]: 85
Molecule: AcG-palmitoyl diamino propionate-VKIKK (DAP1) (peptide)

effect on PPT1 activity ([4]; cell extract preincubated 15 min at 37° C., Po, rhodopsin, GAP-43, Gα peptide substrates): did not affect PPT activity
Molecule: AcGCVKIKK (Ac-GCVKIKK-NH2)

depalmitoylation by extract of PPT1-overexpressing cells against vector-transfected cells [6]: ~2.5 fold
Molecule: MLCCMRR (also: [14C]palmitoyl thioester on one Cys, which not given here) [[14C]palmitoylated GAP43 peptide (MLCCMRR)]
